From ChEMBL document CHEMBL4342507, “Targeting YAP Degradation by a Novel 1,2,4-Oxadiazole Derivative via Restoration of the Function of the Hippo Pathway” (ACS Med Chem Lett, 2020)
Calls of active or inactive are those of the source. The calls are words filed in the database; no cut-off is given here.

Experiments:
Mus musculus [1] = assay: Downregulation of C-myc protein expression in tumor of athymic Nude-Foxn1nu BALB/c mouse xenografted with human MDA-MB-231 cells at 200 mg/kg, po administered once daily via gavage for 40 days by immunoblotting analysis; type: functional, organism-based
MDA-MB-231 [2] = assay: Downregulation of TAZ protein expression in human MDA-MB-231 cells at 0.25 to 1.5 uM measured after 24 to 48 hrs by immunoblotting analysis; type: functional, cell-based
[3] = target: T1, Serine/threonine-protein kinase 3/4 (Homo sapiens) (UniProt Q13043+Q13188); assay: Activation of MST1/2 in human PC3 cells assessed as effect on phosphorylation at T183/T180 residues at 0.25 to 1.5 uM measured after 24 hrs by Western blot analysis; type: cell-based
PC-3 = assay: Effect on MST1 expression in human PC3 cells at 0.25 to 1.5 uM measured after 24 hrs by Western blot analysis; type: functional, cell-based
[4] = Acute toxicity in athymic Nude-Foxn1nu BALB/c mouse xenografted with human MDA-MB-231 cells assessed as effect on serum total bilirubin level at 200 mg/kg, po administered once daily via gavage for 14 days; type: organism-based; conditions: in vivo, 336 h
MDA-MB-231 [5] = assay: Effect on MST1 expression in human MDA-MB-231 cells at 0.25 to 1.5 uM measured after 24 hrs by Western blot analysis; type: functional, cell-based
MDA-MB-231 [6] = assay: Activation of MOB in human MDA-MB-231 cells assessed as phosphorylation at Thr35 residue at 0.25 to 1.25 uM measured after 24 hrs by Western blot analysis; type: cell-based
MDA-MB-231 [7] = assay: Cytotoxicity against human MDA-MB-231 cells assessed as reduction in cell viability at 0.2 to 1.2 uM by MTT assay; type: functional, cell-based; conditions: TDE = time-dependent effect
[8] = target: T2, Serine/threonine-protein kinase LATS1 (Homo sapiens) (UniProt O95835); assay: Activation of LATS1 in human […] cells assessed as increase in YAP phosphorylation at Ser397 at 0.25 to 1.5 uM measured after 12 to 24 hrs by immunoblotting analysis; type: cell-based
T2 sequence (whole entry): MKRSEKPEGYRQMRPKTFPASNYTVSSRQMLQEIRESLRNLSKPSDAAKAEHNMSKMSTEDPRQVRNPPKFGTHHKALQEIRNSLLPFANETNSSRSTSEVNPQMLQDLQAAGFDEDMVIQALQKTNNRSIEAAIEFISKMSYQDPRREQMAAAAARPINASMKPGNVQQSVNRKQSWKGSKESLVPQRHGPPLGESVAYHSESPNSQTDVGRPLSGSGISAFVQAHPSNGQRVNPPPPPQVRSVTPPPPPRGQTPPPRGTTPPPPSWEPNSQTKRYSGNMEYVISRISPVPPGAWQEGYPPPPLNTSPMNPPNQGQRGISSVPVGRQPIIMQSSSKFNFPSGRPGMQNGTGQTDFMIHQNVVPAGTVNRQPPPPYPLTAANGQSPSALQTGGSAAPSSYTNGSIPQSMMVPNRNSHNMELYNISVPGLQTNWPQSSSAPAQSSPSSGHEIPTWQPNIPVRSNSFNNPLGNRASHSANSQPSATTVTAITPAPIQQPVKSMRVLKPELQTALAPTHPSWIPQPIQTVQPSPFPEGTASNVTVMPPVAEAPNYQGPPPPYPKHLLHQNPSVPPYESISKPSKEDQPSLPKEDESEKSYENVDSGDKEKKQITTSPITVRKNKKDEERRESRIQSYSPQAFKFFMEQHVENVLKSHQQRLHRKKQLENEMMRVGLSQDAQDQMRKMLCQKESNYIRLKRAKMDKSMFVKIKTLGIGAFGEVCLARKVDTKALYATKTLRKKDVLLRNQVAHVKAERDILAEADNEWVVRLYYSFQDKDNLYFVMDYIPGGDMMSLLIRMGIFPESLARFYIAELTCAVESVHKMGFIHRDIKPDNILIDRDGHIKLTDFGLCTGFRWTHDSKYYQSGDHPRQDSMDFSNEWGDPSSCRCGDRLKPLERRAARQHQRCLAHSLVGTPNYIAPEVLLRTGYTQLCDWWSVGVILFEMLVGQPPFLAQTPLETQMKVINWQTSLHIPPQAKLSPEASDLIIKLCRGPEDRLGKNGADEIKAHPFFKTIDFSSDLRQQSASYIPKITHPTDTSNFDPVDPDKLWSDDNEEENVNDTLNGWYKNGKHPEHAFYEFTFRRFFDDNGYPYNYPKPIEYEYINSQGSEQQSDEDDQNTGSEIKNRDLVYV

[9] = Acute toxicity in athymic Nude-Foxn1nu BALB/c mouse xenografted with human MDA-MB-231 cells assessed as effect on serum albumin level at 200 mg/kg, po administered once daily via gavage for 14 days; type: organism-based; conditions: in vivo, 336 h
[10] = target: T2, Serine/threonine-protein kinase LATS1 (Homo sapiens); assay: Activation of LATS1 in human SUM159 cells assessed as increase in YAP phosphorylation at Ser397 at 0.25 to 1.5 uM measured after 24 to 48 hrs by immunoblotting analysis; type: cell-based
MDA-MB-231 [11] = assay: Cytotoxicity against human MDA-MB-231 cells ectopically overexpressed with wild type FLAG-tagged YAP assessed as reduction in cell viability at 0.2 to 1.2 uM measured after 72 hrs by MTT assay; type: functional, cell-based
[12] = target: T2, Serine/threonine-protein kinase LATS1 (Homo sapiens); assay: Activation of LATS1 in human MDA-MB-231 cells assessed as increase in phosphorylation at Ser909 residue measured after 24 hrs by Western blot analysis; type: cell-based
[13] = target: T2, Serine/threonine-protein kinase LATS1 (Homo sapiens); assay: Activation of LATS1 in human PC3 cells assessed as induction of YAP degradation by measuring suppression of YAP protein expression at 0.25 to 1.5 uM measured after 12 to 24 hrs by immunoblotting analysis; type: cell-based
[14] = target: T2, Serine/threonine-protein kinase LATS1 (Homo sapiens); assay: Activation of LATS1 in human SUM159 cells assessed as induction of YAP degradation by measuring suppression of YAP protein expression at 0.25 to 1.5 uM measured after 12 to 24 hrs by immunoblotting analysis; type: cell-based
[15] = target: T1, Serine/threonine-protein kinase 3/4 (Homo sapiens); assay: Activation of MST1/2 in human MDA-MB-231 cells assessed as effect on phosphorylation at T183/T180 residues at 0.25 to 1.5 uM measured after 24 hrs by Western blot analysis; type: cell-based
Mus musculus [16] = assay: Downregulation of cyclin D1 protein expression in tumor of athymic Nude-Foxn1nu BALB/c mouse xenografted with human MDA-MB-231 cells at 200 mg/kg, po administered once daily via gavage for 40 days by immunoblotting analysis; type: functional, organism-based
SUM-159-PT [17] = assay: Downregulation of TAZ protein expression in human SUM159 cells at 0.25 to 1.5 uM measured after 12 to 24 hrs by immunoblotting analysis; type: functional, cell-based
[18] = target: T2, Serine/threonine-protein kinase LATS1 (Homo sapiens); assay: Activation of LATS1 in human SUM159 cells assessed as increase in YAP phosphorylation at Ser397 at 0.25 to 1.5 uM measured after 12 to 24 hrs by immunoblotting analysis; type: cell-based
SUM-159-PT [19] = assay: Cytotoxicity against human SUM159 cells assessed as reduction in cell viability at 0.2 to 1.2 uM by MTT assay; type: functional, cell-based; conditions: TDE = time-dependent effect

T1 sequence (Q13043 whole entry, looked up): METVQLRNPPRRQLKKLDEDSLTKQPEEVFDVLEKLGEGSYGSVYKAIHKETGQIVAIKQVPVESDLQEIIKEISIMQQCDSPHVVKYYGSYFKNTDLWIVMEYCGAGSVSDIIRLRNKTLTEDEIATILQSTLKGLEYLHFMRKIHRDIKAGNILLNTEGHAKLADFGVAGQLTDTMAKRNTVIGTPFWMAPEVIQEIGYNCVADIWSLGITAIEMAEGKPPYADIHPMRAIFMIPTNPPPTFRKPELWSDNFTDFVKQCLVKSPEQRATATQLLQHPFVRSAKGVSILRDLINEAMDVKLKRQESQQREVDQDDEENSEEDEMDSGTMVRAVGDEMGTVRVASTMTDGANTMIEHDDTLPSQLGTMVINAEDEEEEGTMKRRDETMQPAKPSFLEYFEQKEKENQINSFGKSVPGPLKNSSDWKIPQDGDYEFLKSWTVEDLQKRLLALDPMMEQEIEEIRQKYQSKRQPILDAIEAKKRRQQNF
T1 sequence (Q13188 whole entry, looked up): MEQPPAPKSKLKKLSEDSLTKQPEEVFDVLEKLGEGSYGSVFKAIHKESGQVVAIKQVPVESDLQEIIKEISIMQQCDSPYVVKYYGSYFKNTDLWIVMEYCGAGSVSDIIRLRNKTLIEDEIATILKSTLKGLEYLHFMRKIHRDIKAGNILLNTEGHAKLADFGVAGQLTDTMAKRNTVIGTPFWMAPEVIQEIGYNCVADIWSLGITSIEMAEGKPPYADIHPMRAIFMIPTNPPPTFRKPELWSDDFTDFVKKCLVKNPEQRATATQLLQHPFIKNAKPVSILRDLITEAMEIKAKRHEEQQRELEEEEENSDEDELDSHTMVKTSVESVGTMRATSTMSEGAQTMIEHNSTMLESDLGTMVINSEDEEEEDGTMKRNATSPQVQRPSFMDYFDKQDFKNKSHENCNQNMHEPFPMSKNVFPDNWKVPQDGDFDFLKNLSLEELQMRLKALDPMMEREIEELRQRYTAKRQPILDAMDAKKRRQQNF

CC(=O)Nc1ccc(NC(=O)Nc2cccc(-c3nc(-c4ccc(NC(=O)c5cccnc5)cc4Cl)no3)c2)cc1C(F)(F)F
inhibition (Mus musculus [1]): Active | inhibition (MDA-MB-231 [2]): Active | Activity [3]: inactive | Activity (PC-3): inactive | Activity [4]: Non-Toxic | Activity (MDA-MB-231 [5]): inactive | Activity (MDA-MB-231 [6]): Active | Activity (MDA-MB-231 [7]): Tde | Activity [8]: Active | Activity [9]: Non-Toxic | Activity [10]: inactive | Activity (MDA-MB-231 [11]): inactive | Activity [12]: Dose-dependent effect | Activity [13]: Active | Activity [14]: Active | Activity [15]: inactive | inhibition (Mus musculus [16]): Active | inhibition (SUM-159-PT [17]): Active | Activity [18]: Active | Activity (SUM-159-PT [19]): Tde
